# pKi: −log10 of the molar value. Entries after “also recorded” stand apart in the source; their conditions may differ. Like-named read-outs stand apart in the source and are kept apart here.
# Legend:
# [1] = target: T1, GABAA receptors α5β3γ2 (GABA α5) (Homo sapiens, UniProt P18507+P31644); assay: Binding activity on GABAAR: inhibition of [3H]Ro15-1788 binding, membranes of Ltk cells; conditions: α5β3γ2 Ltk cell membranes
# T1 construct: membranes
# T1 sequence (P31644 32-462): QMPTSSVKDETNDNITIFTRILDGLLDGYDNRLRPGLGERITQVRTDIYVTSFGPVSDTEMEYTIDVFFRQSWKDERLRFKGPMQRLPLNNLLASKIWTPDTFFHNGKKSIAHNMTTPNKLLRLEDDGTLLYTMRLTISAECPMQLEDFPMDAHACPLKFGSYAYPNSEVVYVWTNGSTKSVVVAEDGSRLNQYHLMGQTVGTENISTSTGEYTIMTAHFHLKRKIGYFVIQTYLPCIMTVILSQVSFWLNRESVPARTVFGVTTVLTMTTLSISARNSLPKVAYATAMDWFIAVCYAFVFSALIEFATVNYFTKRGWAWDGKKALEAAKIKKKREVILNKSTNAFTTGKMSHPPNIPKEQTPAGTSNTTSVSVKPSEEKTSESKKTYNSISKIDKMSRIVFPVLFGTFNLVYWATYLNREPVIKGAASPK
# T1 sequence (P28472 26-473 partner): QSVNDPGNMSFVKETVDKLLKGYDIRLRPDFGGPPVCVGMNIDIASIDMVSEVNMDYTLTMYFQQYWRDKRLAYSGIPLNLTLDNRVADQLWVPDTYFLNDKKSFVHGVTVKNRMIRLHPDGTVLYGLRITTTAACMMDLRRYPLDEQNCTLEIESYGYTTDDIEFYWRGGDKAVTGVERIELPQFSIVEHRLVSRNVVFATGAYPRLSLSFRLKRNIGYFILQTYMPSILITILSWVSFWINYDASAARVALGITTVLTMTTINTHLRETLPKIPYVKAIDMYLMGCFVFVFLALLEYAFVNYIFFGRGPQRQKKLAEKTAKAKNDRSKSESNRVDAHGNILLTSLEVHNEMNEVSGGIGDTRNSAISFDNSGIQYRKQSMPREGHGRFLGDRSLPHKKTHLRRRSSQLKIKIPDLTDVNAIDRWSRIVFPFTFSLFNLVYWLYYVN
# T1 sequence (P18507 40-467 limits assumed): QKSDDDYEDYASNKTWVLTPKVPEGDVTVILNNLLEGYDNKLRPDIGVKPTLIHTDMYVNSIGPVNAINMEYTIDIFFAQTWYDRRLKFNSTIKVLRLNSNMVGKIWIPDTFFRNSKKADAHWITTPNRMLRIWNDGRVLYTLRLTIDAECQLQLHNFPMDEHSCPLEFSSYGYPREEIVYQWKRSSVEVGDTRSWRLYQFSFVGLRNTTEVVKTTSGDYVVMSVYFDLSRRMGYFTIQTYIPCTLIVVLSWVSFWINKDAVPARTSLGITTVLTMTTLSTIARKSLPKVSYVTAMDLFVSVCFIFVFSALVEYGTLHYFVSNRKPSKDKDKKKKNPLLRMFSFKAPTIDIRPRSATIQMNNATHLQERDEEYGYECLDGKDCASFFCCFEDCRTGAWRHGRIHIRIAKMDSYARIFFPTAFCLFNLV
# Description: (§1) Tissue culture and Membrane Preparation: The binding was performed on Ltk cells stably expressing GABAA receptors: α1β1γ2, α2β3γ2, α3β3γ2 and α5β3γ2 (provided by Merck Co., NJ, USA). Cells were seeded in 100 mm culture plates in DMEM/F12 medium containing 10% serum and antibiotics in 5% CO2 and allowed to grow for 1-2 days. GABAAR expression was then induced by dexamethasone as follows: 0.5 μM for 1 day for α5 containing and 2 μM for 3 days for α1, α2 and α3 containing GABAARs. After induction, cells were collected by scraping into Dulbecco's Phosphate buffered saline (DPBS, pH 7.4, Invitrogen, Carlsbad, Calif., USA) and centrifuged at 150×g for 10 min. The pellet was washed twice by re-suspension and centrifugation. The cell pellets from at least 5 different preps were combined, suspended in the binding assay buffer (50 mM KH2PO4; 1 mM EDTA; 0.2 M KCl, pH 7.4) and membranes prepared by sonication (3-5 times, 30 sec) using Branson Sonifier 150 (G. Heinmann, Germany). Protein content was determined using BCA assay (Bio-Rad Labs, Reinach, Switzerland) with Bovine Serum Albumin (Sigma Aldrich, St. Louis, Mo., USA) as the standard. Aliquots were prepared and stored at −20° C. for further use in binding assays.
# (§2) Ligand Binding: Saturation binding curves were obtained by incubating membranes with increasing concentrations (0.01-8 nM) of [^3H]Rol5-1788 (Flumazepil, 75-85 Ci/mmol, PerkinElmer, MA, USA), with nonspecific binding measured in the presence of 10 μM diazepam.
# All binding assays were performed for 1 h at 4° C. in assay buffer. The total assay volume was 0.5 ml containing 0.2 mg/ml protein for α5 and 0.4 mg/ml for α1, α2, and α3 containing GABAAR membranes. Incubations were terminated by filtration through GF/B filters using a 24-Cell Harvestor (Brandel, Gaithersburg, Md., USA) followed by 3 washes with ice-cold assay buffer. Filters were transferred to scintillation vials, 5 ml scintillation liquid added, vortex-mixed and kept in dark. Next day, radioactivity was obtained using a scintillation counter (Beckman Coulter, Brea, Calif., USA). All assays were performed in triplicate.
# Data Analyses: Saturation and inhibition curves were obtained using GraphPad Prism software (GraphPad Software, Inc., CA, USA).
# [2] = system: GABA α5 versus GABA α1, GABA α2, or GABA α3; assay: Binding selectivity from [3H]Ro15-1788 binding on GABAAR subtypes
# Description: as §1, with “The cell pellets from at least 5 different preps were combined, suspended in the binding assay buffer (50 mM KH2PO4; 1 mM EDTA; 0.2 M KCl, pH 7.4) and membranes prepared by sonication (3-5 times, 30 sec) using Branson Sonifier 150 (G. Heinmann, Germany).” left out, “Aliquots were prepared and stored at −20° C. for further use in binding assays.” left out
# as §2
# All binding assays were performed for 1 h at 4° C. in assay buffer. […] Next day, radioactivity was obtained using a scintillation counter (Beckman Coulter, Brea, Calif., USA). […]
# GABAA receptors (α5β2γ2) = target: T2, GABAA receptors (α5β2γ2) (Homo sapiens, UniProt P18507+P31644); assay: Positive allosteric modulator activity: potentiation of EC20 GABA current in oocytes; assay type: cell-based; conditions: @ 100 nM
# T2 construct: expressed in transfected cells
# T2 sequence (P31644 32-462): T1 sequence (P31644 32-462)
# T2 sequence (P47870 25-512 partner limits assumed): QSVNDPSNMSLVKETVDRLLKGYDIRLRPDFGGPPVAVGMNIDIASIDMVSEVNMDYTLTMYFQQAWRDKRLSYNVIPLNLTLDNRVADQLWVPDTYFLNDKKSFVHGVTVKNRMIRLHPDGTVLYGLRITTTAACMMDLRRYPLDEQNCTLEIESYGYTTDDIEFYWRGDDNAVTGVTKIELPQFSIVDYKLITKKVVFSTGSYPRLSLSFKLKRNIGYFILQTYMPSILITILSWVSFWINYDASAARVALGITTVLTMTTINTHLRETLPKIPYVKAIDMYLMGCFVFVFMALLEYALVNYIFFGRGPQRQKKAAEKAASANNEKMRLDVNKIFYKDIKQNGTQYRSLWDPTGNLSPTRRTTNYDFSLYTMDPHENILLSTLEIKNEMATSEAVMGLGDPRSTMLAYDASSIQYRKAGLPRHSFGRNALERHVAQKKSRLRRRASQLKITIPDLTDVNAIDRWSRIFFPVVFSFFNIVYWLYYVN
# T2 sequence (P18507 40-467 limits assumed): T1 sequence (P18507 40-467 limits assumed)
# Description: On day 1, 1 ng/32 nL of GABAA α5β2γ2 cDNA was injected into one oocyte. Test starts on day 2. The cDNA injected to the oocytes was a mix of alpha, beta and gamma, their ratio is 1:1:10 (by weight) and the total weight of the mixed 3 subunits to be injected in one oocyte was 1 ng in 32 nl volume. The injected oocytes can also be tested on day 3. In such case, the cDNA amount injected to the oocytes should be reduced by 20%.
# 1). 8 oocytes were placed in 8 chambers of OpusXpress and superfused with Modified Barth's Saline (MBS) at 3 mL/min. Glass electrodes back-filled with 3M KCl (0.5-3 megaohms) were used. […] 2). […] 3).
# 1). New oocytes were used to run new test. 2). […] 3). […] Oocytes were washed with MBS for 5-10 min. 4). […] Itest was divided by IGABA to obtain potentiation (%).
# 1). Repeat the above steps 1), 2) and 3) in the control test. 2). […] Divide Itest by IGABA to obtain potentiation (%). 3). Discard all tested oocytes, new oocytes were used and the above steps 1) and 2) were repeated to test second concentration of the same compound. Each oocyte was used for only one concentration test for a single test compound. The steps were repeated for other test compounds.
# α5-containing GABAA R = target: T3, α5-containing GABAA R (Homo sapiens, UniProt P18507+P31644); conditions: cited from earlier work
# T3 sequence (P31644 32-462): T1 sequence (P31644 32-462)
# T3 sequence (P28472 26-473 partner): T1 sequence (P28472 26-473 partner)
# T3 sequence (P18507 40-467 limits assumed): T1 sequence (P18507 40-467 limits assumed)
# aged-impaired (AI) rats = assay: Radial Arm Maze (RAM) behavioral task, two-hour delay; assay type: in vivo, rat; conditions: 3 mg/kg ip
# Description: The effects of methyl 3,5-diphenylpyridazine-4-carboxylate on the in vivo spatial memory retention of aged-impaired (AI) rats were assessed in a Radial Arm Maze (RAM) behavioral task using vehicle control and four different dosage levels of methyl 3,5-diphenylpyridazine-4-carboxylate (0.1 mg/kg, 0.3 mg/kg, 1 mg/kg and 3 mg/kg, ip). RAM behavioral tasks were performed on eight AI rats. All five treatment conditions (vehicle and four dosage levels) were tested on all eight rats.
# The RAM apparatus used consisted of eight equidistantly-spaced arms. An elevated maze arm (7 cm width×75 cm length) projected from each facet of an octagonal center platform (30 cm diameter, 51.5 cm height). Clear side walls on the arms were 10 cm high and were angled at […] to form a trough. A food well (4 cm diameter, 2 cm deep) was located at the distal end of each arm. Froot Loops™ (Kellogg Company) were used as rewards. Blocks constructed of Plexiglas™ (30 cm height×12 cm width) could be positioned to prevent entry to any arm. Numerous extra maze cues surrounding the apparatus were also provided.
# The AI rats were initially subjected to a pre-training test (Chappell et al. Neuropharmacology 37: 481-487, 1998). […]
# GABAA α5 receptor = target: T4, GABAA α5 receptor (Rattus norvegicus, UniProt P19969); assay: GABAA α5 receptor occupancy with Ro 15-4513 tracer; assay type: in vivo, Long Evans rats
# T4 construct: from tissue; host or cells: brain of living Long Evans rats; hippocampus and cerebellum dissected after i.v. dosing
# Source text: (§3) Food and water were available ad libitum.
# [3] = assay type: in vivo, Long Evans rats
# Description: as §3
# For plasma exposures, blood samples were centrifuged at 14000 rpm for 16 minutes. After centrifuging, 50 ul of supernatant (plasma) from each sample was added to 200 μl of acetonitrile plus 0.1% formic acid. […] Samples were sonicated for 5 minutes in an ultrasonic water bath, followed by centrifugation for 30 minutes, at 16000 RPM. 100 ul of supernatant was removed from each sample vial and placed in a new glass auto sample vial, followed by the addition of 300 μl of sterile water (pH 6.5).
# Additional studies were conducted in aged Long-Evans rats in order to determine the exposures at the behaviorally relevant doses in the cognition studies. Exposure in young Long-Evans rats was also determined to bridge with the receptor occupancy studies that were conducted in young Long-Evans rats. Exposures in young and aged Long-Evans rats were relatively similar (Table 4, FIG. 4).
# T4 sequence (P19969 32-464 limits assumed): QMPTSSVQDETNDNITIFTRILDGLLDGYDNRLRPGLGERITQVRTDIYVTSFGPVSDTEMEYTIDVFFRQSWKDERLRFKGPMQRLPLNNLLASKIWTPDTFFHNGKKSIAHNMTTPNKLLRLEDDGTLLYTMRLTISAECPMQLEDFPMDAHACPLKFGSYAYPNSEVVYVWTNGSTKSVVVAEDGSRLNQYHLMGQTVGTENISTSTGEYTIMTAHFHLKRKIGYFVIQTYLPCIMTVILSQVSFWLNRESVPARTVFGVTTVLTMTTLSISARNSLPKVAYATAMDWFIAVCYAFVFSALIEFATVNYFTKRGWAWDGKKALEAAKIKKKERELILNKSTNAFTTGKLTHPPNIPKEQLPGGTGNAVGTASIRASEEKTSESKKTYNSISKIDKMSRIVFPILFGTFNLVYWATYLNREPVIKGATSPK
SMILES,pKi [1],"Binding selectivity for GABA α5 versus GABA α1, GABA α2, or GABA α3 [2]",GABA α5 functional potentiation (GABAA receptors (α5β2γ2)) [% @ 100 nM],α5 in vitro efficacy (EC20) (α5-containing GABAA R),average no. of errors ± SEM in retention test (aged-impaired (AI) rats),memory performance relative to vehicle control (aged-impaired (AI) rats),"effect on Ro 15-4513 binding in hippocampus and cerebellum (GABAA α5 receptor; 0.01-10 mg/kg, i.v.)",GABAA α5 receptors occupied in hippocampus (GABAA α5 receptor; at exposures behaviorally active in aged-impaired rats),"receptor occupancy depending on method (GABAA α5 receptor; exposure of 180 ng/g in hippocampus (1 mg/kg, i.v.))","ED50 of receptor occupancy, ratio method (GABAA α5 receptor; i.v., ratio method) [mg/kg]","receptor occupancy at 10 mg/kg (GABAA α5 receptor; rat, iv, 10 mg/kg) [%]","increase in hippocampal exposure ([3]; dose from 0.1 to 1 mg/kg, i.v.) [fold]","increase in exposure in hippocampus and plasma ([3]; dose from 1 to 3 mg/kg, ip, young and aged rats) [fold]","increase in hippocampal exposure ([3]; dose from 1 to 10 mg/kg, i.v.) [fold]","increase in plasma exposure ([3]; dose from 1 to 10 mg/kg, i.v.) [fold]"
COc1ncc(C#Cc2ncn3c2Cc2cnnn2-c2cc(Cl)ccc2-3)cc1C(F)(F)F [Compound 733],> 7.00,>100-fold,,,,,,,,,,,,,
COCc1nnn2c1Cc1c(C#Cc3cnc(C)[nH]3)ncn1-c1ccc(Cl)cc1-2 [Compound 739],> 7.00,,>50,,,,,,,,,,,,
"COC(=O)c1c(-c2ccccc2)cnnc1-c1ccccc1 [methyl 3,5-diphenylpyridazine-4-carboxylate]",,,,+27,1.31±0.40,significantly improved memory performance,"blocked the binding of Ro154513 in the hippocampus but did not affect binding of Ro15413 in the cerebellum; also recorded: dose-dependently reduced Ro 15-4513 binding in hippocampus, without affecting cerebellum levels of Ro 15-4513",about 32%,32-39%,1.8,> 90,12,4.5 to 6.6,~5,12

# Reference: US20230098667A1, “BENZODIAZEPINE DERIVATIVES, COMPOSITIONS, AND METHODS FOR TREATING COGNITIVE IMPAIRMENT” (priority 2019, published 2023)
